Measurements as given in US20240034753A1, “THERAPEUTIC PEPTIDES” (COHBAR, INC., priority 2020, published 2024).
Square brackets hold non-standard residues; d marks the D form. Peptide text beside a SMILES is read from it. Nle = CCCC[C@H](N)C(=O)O

Assays:
3T3-L1 Mouse Adipocytes = assay: Free fatty acid levels in cultured mouse adipocytes stimulated with isoproterenol; type: cell-based; conditions: peptide 10 μM, 20-22 hours then 3 hours with 1 nM isoproterenol; relative to isoproterenol treated cells
Method: The effect of the peptides on fatty acid metabolism can be assessed using an assay of free fatty acid levels in cultured cells such as mouse adipocytes. Peptides were initially prepared as 10 mM stock in DMSO and used at a final concentration of 10 μM (0.1% DMSO). […] Mouse 3T3-L1 cells purchased from ZenBio were seeded at 3,000 cells per well in 96-well plates in Pre-adipocyte Medium (Zen-Bio) and grown to confluence at 37° C. in a humidified atmosphere of 5% CO2/95% air. Two days after confluence, cells were placed in Adipocyte Differentiation Medium (Zen-Bio) and cultured for three additional days at 37° C. in a humidified atmosphere of 5% CO2/95% air. The culture media was then replaced with Adipocyte Maintenance Medium (Zen-Bio) and the cells maintained for an additional 9-12 days at 37° C. in a humidified atmosphere of 5% CO2/95% air with partial medium replacement every other day. Following 12-15 days of differentiation, test peptides were added at a final concentration of 10 μM in 0.1% DMSO and incubated for 20-22 hours in Adipocyte Maintenance Medium at 37° C. in a humidified atmosphere of 5% CO2/95% air. After 20-22 hours, 1 nM isoproterenol was added to all wells except untreated controls and test peptides were replenished. Insulin at 100 nM was added to control wells. Cells were incubated for 3 hours in Assay Buffer (Zen-Bio) at 37° C. in a humidified atmosphere of 5% CO2/95% air. Free fatty acid concentrations in the media were determined using a Free Fatty Acid Assay kit (Zen-Bio) according to the manufacturer's instructions using a Cytation 3 plate reader at 540 nm (BioTek, Winooski, VT). Absorbance values were corrected for untreated background and expressed relative to isoproterenol treated cells. Treatment with isoproterenol (1 nM) alone was used as the free fatty acid level stimulatory control. The relative standard deviation of the isoproterenol control was <10%. […] Free fatty acid levels for insulin (100 nM) treatment were <5% of the isoproterenol control value.

[1] = tested on: SH-SY5Y Neuroblastoma Cells Exposed to Staurosporine; assay: ATP levels in cells exposed to staurosporine (CellTiter-Glo); type: cell-based, human; conditions: peptide 10 μM plus staurosporine (40 μM), 18-20 hours; <100% cytoprotective, >100% synergistic
Method: Peptides were initially prepared as 10 mM stock in DMSO and tested at a final concentration of 10 μM (0.1% DMSO). […] […] CellTiter-Glo® Assay kit was purchased from Promega. SH-SY5Y human neuroblastoma cell line was purchased from American Type Culture Collection (Manassas, VA) and licensed from Memorial Sloan-Kettering Cancer Center (New York, NY). SH-SY5Y cells were grown in DMEM/F12 medium supplemented with 10% FBS with 100 IU/ml penicillin and 100 μg/ml streptomycin. Cultures were maintained at 37° C. in a humidified atmosphere of 5% CO2/95% air. SH-SY5Y cells were seeded at 30,000 cells per well on 96-well plates. […] ATP levels were determined using a CellTiter-Glo Assay kit (Promega) according to the manufacturer's instructions. Luminescence for each sample well on the plate was measured using a Cytation 3 plate reader (BioTek, Winooski, VT). […] A value less than 100% is indicative of a cytoprotective effect, while a value greater than 100% is indicative of a synergistic effect on viability.

[2] = tested on: A172 human brain glioblastoma cell line; assay: Caspase-Glo 3/7 assay of caspase 3/7 activity in cultured cells; type: cell-based; conditions: peptide 10 μM, 18-20 hours, relative to 0.1% DMSO control
Method: The effect of the peptides on cell death/survival can be assessed using a […] assay in cultured cells. Peptides were dissolved at 10 mM in DMSO as stock solutions for use at a final concentration of 10 μM. […] Caspase-Glo 3/7 Assay Reagent was purchased from Promega (Madison, WI). A172 human brain glioblastoma cell line was purchased from American Type Culture Collection (Manassas, VA). A172 cells were grown in DMEM supplemented with 10% FBS with 100 IU/ml penicillin and 100 μg/ml streptomycin. Cultures were maintained at 37° C. in a humidified atmosphere of 5% CO2/95% air. A172 cells were seeded at 8,000 cells per well on 96-well plates. […] Caspase 3/7 activity was determined using a Caspase-Glo 3/7 Assay kit (Promega) according to the manufacturer's instructions. Luminescence for each sample well on the plate was measured using a Cytation 3 plate reader (BioTek, Winooski, VT). Activity was calculated relative to 0.1% DMSO control.

C2C12 Mouse Myoblasts = assay: Glucose utilization (glucose remaining in medium); type: cell-based; conditions: peptide 10 μM, 18-22 hours, relative to 0.1% DMSO treated control cells
Method: The effect of the peptides on glucose metabolism can be assessed using an assay of glucose utilization in cultured cells such as mouse myoblasts. Peptides were initially prepared as 10 mM stock in DMSO and used at a final concentration of 10 μM (0.1% DMSO). C2C12 mouse myoblast cell line was purchased from American Type Culture Collection (Manassas, VA). C2C12 cultures were maintained at 37° C. in a humidified atmosphere of 5% CO2/95% air with medium changes every second day. C2C12 cells were grown in DMEM (1 g/L glucose) supplemented with 10% FBS with 100 IU/ml penicillin and 100 μg/ml streptomycin. C2C12 cells were seeded at 7,000 cells per well on 96-well plates and cultured to confluence. Once the cell reached confluence the media was changed to DMEM (1 g/L glucose) supplemented with 2% HS with 100 IU/ml penicillin and 100 μg/ml streptomycin and maintained at 37° C. in a humidified atmosphere of 5% CO2/95% air. 5 days post-induction of differentiation fresh DMEM (1 g/L glucose) supplemented with 2% HS with 100 IU/ml penicillin and 100 μg/ml streptomycin was added to cultures. Cells were maintained at 37° C. in a humidified atmosphere of 5% CO2 and 95% air for 5 hours. After 5 hours test peptides at 10 μM or controls (0.5 mM or 1 mM metformin in 1% DMSO) prepared in fresh differentiation medium were added to cells and the cultures were maintained at 37° C. in a humidified atmosphere of 5% CO2/95% air for 18-22 hours. At the end of the incubation culture media was removed from the cells and the remaining glucose concentration was measured using a Glucose Assay kit (Abcam) according to the manufacturer's instructions, using a Cytation 3 plate reader at 570 nm (BioTek, Winooski, VT). Glucose concentrations in the medium were calculated relative to 0.1% DMSO treated control cells. The relative standard deviation of the result for the 0.1% DMSO treated control was <20%. Metformin was used as a positive control for reduction of glucose levels (increased glucose utilization glucose levels for treatment with metformin (1 mM) treatment were <20% of the 0.1% DMSO treated control value. The results are reported in Table 11.

SMILES | Free Fatty Acid Levels, MEAN %ISO (3T3-L1 Mouse Adipocytes) [%] | Percent of ATP Reduction Induced by Control [1] [%] | Caspase 3/7 Activity, Percent of Control Activity [2] [%] | Glucose Utilization (glucose concentration in medium), Percent of Untreated Control (C2C12 Mouse Myoblasts) [%]
CC[C@H](C)[C@H](NC(=O)[C@H](CC(C)C)NC(=O)[C@H](CC(C)C)NC(=O)[C@@H](N)CCSC)C(=O)N[C@@H](CC(C)C)C(=O)N[C@H](C(=O)N[C@@H](CC(C)C)C(=O)N[C@H](C(=O)N[C@@H](CC(C)C)C(=O)N[C@H](C)C(=O)O)C(C)C)[C@@H](C)O [compound 3] (H-MLLILTLVL[dA]-OH; N-terminus and C-terminus assumed) | 57.7 | 102.7 | 90.9 | 105.2
CC[C@H](C)[C@H](NC(=O)[C@H](CC(C)C)NC(=O)[C@H](C)NC(=O)[C@@H](N)CCSC)C(=O)N[C@@H](CC(C)C)C(=O)N[C@H](C(=O)N[C@@H](CC(C)C)C(=O)N[C@H](C(=O)N[C@@H](CC(C)C)C(=O)N[C@H](C)C(=O)O)C(C)C)[C@@H](C)O [compound 4] (H-MALILTLVL[dA]-OH; N-terminus and C-terminus assumed) | 71.3 | 94.0 | 96.4 | 117.2
CC[C@H](C)[C@H](NC(=O)[C@H](CC(C)C)NC(=O)[C@H](C)NC(=O)[C@@H](N)CCSC)C(=O)N[C@@H](CC(=O)O)C(=O)N[C@H](C(=O)N[C@@H](CC(C)C)C(=O)N[C@H](C(=O)N[C@@H](CC(C)C)C(=O)N[C@H](C)C(=O)O)C(C)C)[C@@H](C)O [compound 5] (H-MALIDTLVL[dA]-OH; N-terminus and C-terminus assumed) | 95.7 | 106.1 | 76.2 | 128.8
CC[C@H](C)[C@H](NC(=O)[C@@H](NC(=O)CNC(=O)[C@@H](C)NC(=O)[C@@H](N)CCSC)C(C)C)C(=O)N[C@@H](CCCNC(=N)N)C(=O)NCC(=O)N[C@H](C(=O)N[C@@H](CC(C)C)C(=O)N[C@H](C(=O)N[C@@H](CC(C)C)C(=O)O)C(C)C)C(C)C [compound 9] (H-M[dA]GVIRGVLVL-OH; N-terminus and C-terminus assumed) | 88.2 | 95.1 | 89.3 | 128.4
CC[C@H](C)[C@H](NC(=O)[C@@H](NC(=O)CNC(=O)[C@@H](C)NC(=O)[C@@H](N)CCSC)C(C)C)C(=O)N[C@@H](CCCNC(=N)N)C(=O)N[C@@H](C)C(=O)N[C@H](C(=O)N[C@@H](CC(C)C)C(=O)N[C@H](C(=O)N[C@@H](CC(C)C)C(=O)O)C(C)C)C(C)C [compound 10] (H-M[dA]GVIRAVLVL-OH; N-terminus and C-terminus assumed) | 96.4 | 90.4 | 82.6 | 109.1
CC[C@H](C)[C@H](NC(=O)[C@H](Cc1c[nH]c2ccccc12)NC(=O)[C@H](CCC(N)=O)NC(=O)[C@@H](N)CCCNC(=N)N)C(=O)N[C@@H](CC(C)C)C(=O)N[C@@H](Cc1c[nH]cn1)C(=O)N[C@@H](CC(N)=O)C(=O)N[C@H](C)C(=O)NCC(=O)N[C@@H](CCSC)C(=O)N[C@@H](CO)C(=O)N[C@@H](Cc1ccccc1)C(=O)N[C@@H](Cc1ccccc1)C(=O)N[C@@H](CS)C(=O)O [compound 14] (H-RQWILHN[dA]GMSFFC-OH; N-terminus and C-terminus assumed) | 70.4 | 93.6 | 107.4 | 115.7
CSCC[C@H](NC(=O)CNC(=O)[C@@H](C)NC(=O)[C@H](CC(N)=O)NC(=O)[C@H](Cc1c[nH]cn1)NC(=O)[C@H](CC(C)C)NC(=O)[C@H](CCC(=O)O)NC(=O)[C@H](Cc1c[nH]c2ccccc12)NC(=O)[C@H](CCC(N)=O)NC(=O)[C@@H](N)CCCNC(=N)N)C(=O)N[C@@H](CO)C(=O)N[C@@H](C)C(=O)N[C@@H](Cc1ccccc1)C(=O)N[C@@H](CS)C(=O)O [compound 15] (H-RQWELHN[dA]GMSAFC-OH; N-terminus and C-terminus assumed) | 54.5 | 88.4 | 114.6 | 115.1
CSCC[C@H](NC(=O)[C@H](CCCNC(=N)N)NC(=O)[C@H](CCCNC(=N)N)NC(=O)[C@@H](N)CCCNC(=N)N)C(=O)N[C@@H](Cc1ccccc1)C(=O)N[C@@H](CO)C(=O)N[C@@H](CS)C(=O)N[C@@H](Cc1ccc(O)cc1)C(=O)N[C@H](C)C(=O)N[C@@H](Cc1ccc(O)cc1)C(=O)O [compound 19] (H-RRRMFSCY[dA]Y-OH; N-terminus and C-terminus assumed) | 64.0 | 99.5 | 93.7 | 115.7
CCCC[C@H](NC(=O)[C@H](CCCNC(=N)N)NC(=O)[C@H](CCCNC(=N)N)NC(=O)[C@@H](N)CCCNC(=N)N)C(=O)N[C@@H](Cc1ccccc1)C(=O)N[C@@H](CO)C(=O)N[C@@H](CS)C(=O)N[C@@H](Cc1ccc(O)cc1)C(=O)N[C@H](C)C(=O)N[C@@H](Cc1ccc(O)cc1)C(=O)O [compound 20] (H-RRR[Nle]FSCY[dA]Y-OH; N-terminus and C-terminus assumed) | 65.6 | 101.4 | 85.4 | 113.2
